# Assays:
# activated p38 = activated p38 (Homo sapiens, UniProt Q16539); assay: Inhibition of phosphorylation of EGF receptor peptide ("kinase"); type: biochemical; settings: inhibition of phosphorylation of EGF receptor peptide by activated p38
# Method: This assay was carried out in the presence of 10 mM MgCl2, 25 mM β-glycerophosphate, 10% glycerol and 100 mM HEPES buffer at pH 7.6. […] The stock solution was aliquotted into vials. A fixed volume of DMSO or inhibitor in DMSO (final concentration of DMSO in reaction was 5%) was introduced to each vial, mixed and incubated for 15 minutes at room temperature. EGF receptor peptide, […], a phosphoryl acceptor in p38-catalyzed kinase reaction (1), was added to each vial to a final concentration of 200 μM. The kinase reaction was initiated with ATP (100 μM) and the vials were incubated at 30° C. After 30 minutes, the reactions were quenched with equal volume of 10% trifluoroacetic acid (TFA).
# The phosphorylated peptide was quantified by HPLC analysis. Separation of phosphorylated peptide from the unphosphorylated peptide was achieved on a reverse phase column (Deltapak, 5 μm, C18 100D, part no. 011795) with a binary gradient of water and acteonitrile, each containing 0.1% TFA.
# [1] = system: IL-1 production in LPS-stimulated PBMCs; assay: Inhibition of IL-1 production in LPS-stimulated PBMCs ("cell"); type: cell-based, human; settings: Homo sapiens, PBMC
# Method: (§1) Inhibitors were serially diluted in DMSO from a 20 mM stock. At least 6 serial dilutions were prepared. Then 4× inhibitor stocks were prepared by adding 4 μl of an inhibitor dilution to 1 ml of RPMI1640 medium/10% fetal bovine serum. The 4× inhibitor stocks contained inhibitor at concentrations of 80 μM, 32 μM, 12.8 μM, 5.12 μM, 2.048 μM, 0.819 μM, 0.328 μM, 0.131 μM, 0.052 μM, 0.021 μM etc. The 4× inhibitor stocks were pre-warmed at 37° C. until use.
# (§2) Fresh human blood buffy cells were separated from other cells in a Vacutainer CPT from Becton & Dickinson (containing 4 ml blood and enough DPBS without Mg^2+/Ca^2+ to fill the tube) by centrifugation at 1500×g for 15 min. Peripheral blood mononuclear cells (PBMCs), located on top of the gradient in the Vacutainer, were removed and washed twice with RPMI1640 medium/10% fetal bovine serum. PBMCs were collected by centrifugation at 500×g for 10 min. The total cell number was determined using a Neubauer Cell Chamber and the cells were adjusted to a concentration of 4.8×10^6 cells/ml in cell culture medium (RPMI1640 supplemented with 10% fetal bovine serum).
# (§3) We placed 100 μl of cell suspension or whole blood in each well of a 96-well cell culture plate. Then we added 50 μl of the 4× inhibitor stock to the cells. Finally, we added 50 μl of a lipopolysaccharide (LPS) working stock solution (16 ng/ml in cell culture medium) to give a final concentration of 4 ng/ml LPS in the assay. The total assay volume of the vehicle control was also adjusted to 200 μl by adding 50 μl cell culture medium. The PBMC cells or whole blood were then incubated overnight (for 12–15 hours) at 37° C./5% CO2 in a humidified atmosphere.
# (§4) The next day the cells were mixed on a shaker for 3–5 minutes before centrifugation at 500×g for 5 minutes. Cell culture supernatants were harvested and analyzed by ELISA for levels of IL-1b (R & D Systems, Quantikine kits, #DBL50), TNF-α (BioSource, #KHC3012), IL-6 (Endogen, #EH2-IL6) and IL-8 (Endogen, #EH2-IL8) according to the instructions of the manufacturer. The ELISA data were used to generate dose-response curves from which IC50 values were derived.
# [2] = system: TNF production in LPS-stimulated PBMCs; assay: Inhibition of TNF production in LPS-stimulated PBMCs ("cell"); type: cell-based, human; settings: Homo sapiens, PBMC
# Method: as §1, §2, §3, §4
# activated p38, sequence (Q16539 whole entry): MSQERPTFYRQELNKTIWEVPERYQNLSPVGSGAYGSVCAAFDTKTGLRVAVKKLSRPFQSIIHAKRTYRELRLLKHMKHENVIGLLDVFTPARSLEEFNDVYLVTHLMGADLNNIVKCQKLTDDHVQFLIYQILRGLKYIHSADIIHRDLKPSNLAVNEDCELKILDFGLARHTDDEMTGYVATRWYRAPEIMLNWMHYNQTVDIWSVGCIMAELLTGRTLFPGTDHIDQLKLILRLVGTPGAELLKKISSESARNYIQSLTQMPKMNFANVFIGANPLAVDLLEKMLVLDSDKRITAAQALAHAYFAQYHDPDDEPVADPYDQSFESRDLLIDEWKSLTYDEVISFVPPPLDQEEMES
Structure (SMILES),IC50 (activated p38),IC50 [1],IC50 [2]
Cc1cc(Cl)c(-c2c(=O)ncn3nc(Sc4ccc(F)cc4)ccc23)cc1C [Compound 44],100 to 1000 nM,≥ 500 nM,≥ 500 nM
Nc1ccc(-c2c(=O)ncn3nc(Sc4ccc(F)cc4)ccc23)c(Cl)c1 [Compound 46],100 to 1000 nM,≥ 500 nM,≥ 500 nM
COc1ccc(-c2c(=O)ncn3nc(Sc4ccc(F)cc4)ccc23)c(Cl)c1 [Compound 47],100 to 1000 nM,100 to 500 nM,≥ 500 nM
CN(C)/C=N\c1ccc(-c2c(=O)ncn3nc(Sc4ccc(F)cc4Cl)ccc23)c(Cl)c1 [Compound 48],100 to 1000 nM,100 to 500 nM,≥ 500 nM
NC(=O)c1ccccc1SC1=NN2CNC(=O)C(c3c(Cl)cccc3Cl)=C2C=C1 [Compound 105],100 to 1000 nM,≥ 500 nM,≥ 500 nM
O=C1NCN2N=C(Sc3ccccn3)C=CC2=C1c1c(Cl)cccc1Cl [Compound 107],100 to 1000 nM,≥ 500 nM,≥ 500 nM
O=C1NCN2C=C(Sc3ccccc3)C=CC2=C1c1c(Cl)cccc1Cl [Compound 110],100 to 1000 nM,≥ 500 nM,≥ 500 nM
O=C1NCN2C=C(Sc3ccc(F)cc3)C=CC2=C1c1c(Cl)cccc1Cl [Compound 111],100 to 1000 nM,≥ 500 nM,≥ 500 nM
N=C(N)Nc1cc(F)c(F)cc1SC1=NN2CNC(=O)C(c3c(Cl)cccc3Cl)=C2C=C1 [Compound 124],≥ 1000 nM,≥ 500 nM,≥ 500 nM
Nc1cc(C(F)(F)F)ccc1SC1=NN2CNC(=O)C(c3c(Cl)cccc3Cl)=C2C=C1 [Compound 126],≥ 1000 nM,100 to 500 nM,≥ 500 nM
NC(=O)Nc1cc(F)ccc1SC1=NN2CNC(=O)C(c3c(Cl)cccc3Cl)=C2C=C1 [Compound 128],≥ 1000 nM,≥ 500 nM,≥ 500 nM
O=C1NCN2N=C(Sc3ccccc3)C=CC2=C1c1c(F)cccc1F [Compound 130],≤ 100 nM,100 to 500 nM,≥ 500 nM
Cc1cc(F)ccc1SC1=NN2CNC(=O)C(c3c(Cl)cccc3Cl)=C2C=C1 [Compound 131],≤ 100 nM,≤ 100 nM,≤ 100 nM
Nc1ccc(F)c(C2=C3C=CC(Sc4ccc(F)cc4)=NN3CNC2=O)c1Cl [Compound 132],≤ 100 nM,≤ 100 nM,100 to 500 nM
Cc1cc(SC2=NN3CNC(=O)C(c4c(Cl)cccc4Cl)=C3C=C2)c(Cl)cc1F [Compound 133],≤ 100 nM,≤ 100 nM,≤ 100 nM
COc1cc(Cl)c(C2=C3C=CC(Sc4ccc(F)cc4)=NN3CNC2=O)cc1OC [Compound 134],≤ 100 nM,100 to 500 nM,≥ 500 nM
Cc1cc(Cl)ccc1Sc1ccc(C(C(N)=O)c2c(Cl)cccc2Cl)nn1 (stereo not shown) [Compound 206],100 to 1000 nM,≥ 500 nM,≥ 500 nM
NC(=O)C(c1ccc(C(O)c2ccccc2)cn1)c1c(Cl)cccc1Cl (stereo not shown) [Compound 208],,100 to 500 nM,
NC(=O)C(c1ccc(C(=O)c2ccccc2)cn1)c1c(Cl)cccc1Cl (stereo not shown) [Compound 209],,≥ 500 nM,
NC(=O)C(c1cccc(-c2ccc(Cl)cc2)n1)c1c(Cl)cccc1Cl (stereo not shown) [Compound 310],100 to 1000 nM,≥ 500 nM,≥ 500 nM
Cc1ccc(-c2cccc(C(C(N)=O)c3c(Cl)cccc3Cl)n2)cc1 (stereo not shown) [Compound 311],100 to 1000 nM,≥ 500 nM,≥ 500 nM
NC(=O)C(c1cccc(-c2ccc(F)c(Cl)c2)n1)c1c(Cl)cccc1Cl (stereo not shown) [Compound 313],100 to 1000 nM,≥ 500 nM,≥ 500 nM
NC(=O)C(c1cccc(-c2cccs2)n1)c1c(Cl)cccc1Cl (stereo not shown) [Compound 317],≥ 1000 nM,≥ 500 nM,≥ 500 nM
COc1ccc(-c2cccc(C(C(N)=O)c3c(Cl)cccc3Cl)n2)cc1 (stereo not shown) [Compound 352],≥ 1000 nM,≥ 500 nM,

# Source: patent US7205305B2, “Inhibitors of p38” (Vertex Pharmaceuticals Incorporated, priority 1996, dated 2007)
